According to US20230416203A1, “POTENT AND SELECTIVE INHIBITORS OF THE CALCIUM-ACTIVATED POTASSIUM CHANNEL, KCA3.1, FOR USE AS PLATFORM THERAPEUTICS” (priority 2020, published 2023):
Like-named read-outs stand apart in the source and are kept apart here.

Legend:
KCa3.1 channel = KCa3.1 channel (Homo sapiens, UniProt O15554); assay: KCa3.1 patch-clamp (QPatch HTX automated and manual); assay type: cell-based
Experimental: The effect of the compounds on KCa3.1 channel was evaluated by patch-clamp using a QPatch HTX automated electrophysiology platform (Sophion, Denmark) and by manual patch-clamp (HEKA, Germany). For QPatch experiments, the giga-seal and whole-cell requirements for the automated electrophysiology were the following: minimum seal resistance=0.1 GQ; holding potential=−80 mV; holding pressure=−20 mbar; and positioning pressure=−70 mbar. For KCa3.1 experiment, the external solution was Na^+-Ringer's and contained (in mM): 160 NaCl; 10 HEPES; 4.5 KCl; 1 MgCl2; and 2 CaCl2 (pH=7.4, 310 mOsm). […] Following establishment of the whole-cell configuration, cells were held at −80 mV and KCa3.1 currents elicited by a voltage protocol that held at −80 mV for 20 ms, stepped to −120 mV for 20 ms, ramped from −120 to +40 mV over 200 ms, and then stepped back to −120 mV for 20 ms. This pulse protocol was applied every 10 s. Current slopes (in amperes per second) were measured using the Sophion QPatch software and exported to Microsoft Excel and GraphPad Prism 7 for analysis. […] Curve-fitting and IC50 determination were performed using GraphPad Prism software.

[1] = target: CaV1.2 channel over KCa3.1 (Homo sapiens, UniProt Q13936); assay: in vitro; settings: pH 7.4
Experimental: (§2) The external solution contained (in mM): 140 TEA-Cl; 2 MgCl2; 10 CaCl2; 10 HEPES; and 5 D-glucose (pH=7.4). The internal solution contained (in mM): 120 CsCl; 1 MgCl2; 10 HEPES; 10 EGTA; 0.3 Na2-GTP; and 4 Mg-ATP (pH=7.2). Following establishment of the whole-cell configuration, CaV1.2 current was recorded at holding membrane potential of −80 mV and then depolarized to +10 mV (test pulse was modified slightly due to lead IV test) for 0.3 s. This protocol was repeated at 20 s intervals to observe the effect of the test compounds on the peak of CaV1.2 current. Each cell was incubated with each test compound for 5 min, or until the current reached steady-state. The compounds were applied at multiple concentrations from low to high. Each cell acted as its own control. The decreases in the peak currents were used to determine the IC50 for CaV1.2 inhibition. Curve-fitting and IC50 calculations were performed using IGOR software.

CaV1.2 channel = CaV1.2 channel (Homo sapiens, UniProt Q13936); assay: cell-based
Experimental: as §2

KCa1.1 = target: T1, KCa1.1 (Homo sapiens, UniProt Q12791); assay: Potassium channels patch-clamp (QPatch), KCa1.1; assay type: cell-based; settings: HEK Human KCa1.1; read-out: KCa1.1
T1 construct: expressed in transfected cells; host or cells: HEK
Experimental: (§1) The effects of Group 4 compounds on related potassium channels were evaluated by patch-clamp using a QPatch HTX automated electrophysiology platform (Sophion, Denmark). The giga-seal and whole-cell requirements for the automated electrophysiology were the following: minimum seal resistance=0.1 GO, holding potential=−80 mV, holding pressure=−20 mbar; and positioning pressure=−70 mbar.

KCa2.2 = target: T2, KCa2.2 (Rattus norvegicus, UniProt P70604); assay: Potassium channels patch-clamp (QPatch), KCa2.2; assay type: cell-based; settings: HEK Rat KCa2.2; read-out: KCa2.2
T2 construct: expressed in transfected cells; host or cells: HEK
Experimental: as §1

KCa2.3 = target: T3, KCa2.3 (Homo sapiens, UniProt Q9UGI6); assay: Potassium channels patch-clamp (QPatch), KCa2.3; assay type: cell-based; settings: COS7 Human KCa2.3; read-out: KCa2.3
T3 construct: expressed in transfected cells; host or cells: COS7
Experimental: as §1

KV1.1 = target: T4, KV1.1 (Mus musculus, UniProt P16388); assay: Potassium channels patch-clamp (QPatch), KV1.1; assay type: cell-based; settings: L929 Mouse KV1.1; read-out: KV1.1
T4 construct: expressed in transfected cells; host or cells: L929
Experimental: as §1

KV1.2 = target: T5, KV1.2 (Rattus norvegicus, UniProt P63142); assay: Potassium channels patch-clamp (QPatch), KV1.2; assay type: cell-based; settings: B82 Rat KV1.2; read-out: KV1.2
T5 construct: expressed in transfected cells; host or cells: B82
Experimental: as §1

KV1.3 = target: T6, KV1.3 (Mus musculus, UniProt P16390); assay: Potassium channels patch-clamp (QPatch), KV1.3; assay type: cell-based; settings: L929 Mouse KV1.3; read-out: KV1.3
T6 construct: expressed in transfected cells; host or cells: L929
Experimental: as §1

KV1.4 = target: T7, KV1.4 (Homo sapiens, UniProt P22459); assay: Potassium channels patch-clamp (QPatch), KV1.4; assay type: cell-based; settings: LTK Human KV1.4; read-out: KV1.4
T7 construct: expressed in transfected cells; host or cells: LTK
Experimental: as §1

KV1.5 = target: T8, KV1.5 (Homo sapiens, UniProt P22460); assay: Potassium channels patch-clamp (QPatch), KV1.5; assay type: cell-based; settings: MEL Human KV1.5; read-out: KV1.5
T8 construct: expressed in transfected cells; host or cells: MEL
Experimental: as §1

KV1.7 = target: T9, KV1.7 (Homo sapiens, UniProt Q96RP8); assay: Potassium channels patch-clamp (QPatch), KV1.7; assay type: cell-based; settings: CHL Human KV1.7; read-out: KV1.7
T9 construct: expressed in transfected cells; host or cells: CHL
Experimental: as §1

KV3.1 = target: T10, KV3.1 (Mus musculus, UniProt P15388); assay: Potassium channels patch-clamp (QPatch), KV3.1; assay type: cell-based; settings: L929 Mouse KV3.1; read-out: KV3.1
T10 construct: expressed in transfected cells; host or cells: L929
T10 sequence (P15388 1-511): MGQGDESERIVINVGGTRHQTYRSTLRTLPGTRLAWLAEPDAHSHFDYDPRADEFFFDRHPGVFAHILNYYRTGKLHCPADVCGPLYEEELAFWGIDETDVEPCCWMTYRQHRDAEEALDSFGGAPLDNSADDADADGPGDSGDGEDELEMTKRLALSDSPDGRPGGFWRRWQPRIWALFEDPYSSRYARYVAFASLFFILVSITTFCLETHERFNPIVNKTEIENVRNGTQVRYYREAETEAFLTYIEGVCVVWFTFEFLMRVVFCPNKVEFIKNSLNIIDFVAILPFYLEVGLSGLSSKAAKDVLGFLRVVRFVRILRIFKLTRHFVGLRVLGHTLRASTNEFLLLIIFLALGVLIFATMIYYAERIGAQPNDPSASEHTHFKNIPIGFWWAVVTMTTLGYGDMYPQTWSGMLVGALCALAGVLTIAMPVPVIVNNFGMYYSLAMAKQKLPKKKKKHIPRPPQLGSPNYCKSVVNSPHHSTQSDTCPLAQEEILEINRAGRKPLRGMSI
Experimental: as §1

KV4.2 = target: T11, KV4.2 (Rattus norvegicus, UniProt Q63881); assay: Potassium channels patch-clamp (QPatch), KV4.2; assay type: cell-based; settings: LTK Rat KV4.2; read-out: KV4.2
T11 construct: expressed in transfected cells; host or cells: LTK
T11 sequence (Q63881 1-630): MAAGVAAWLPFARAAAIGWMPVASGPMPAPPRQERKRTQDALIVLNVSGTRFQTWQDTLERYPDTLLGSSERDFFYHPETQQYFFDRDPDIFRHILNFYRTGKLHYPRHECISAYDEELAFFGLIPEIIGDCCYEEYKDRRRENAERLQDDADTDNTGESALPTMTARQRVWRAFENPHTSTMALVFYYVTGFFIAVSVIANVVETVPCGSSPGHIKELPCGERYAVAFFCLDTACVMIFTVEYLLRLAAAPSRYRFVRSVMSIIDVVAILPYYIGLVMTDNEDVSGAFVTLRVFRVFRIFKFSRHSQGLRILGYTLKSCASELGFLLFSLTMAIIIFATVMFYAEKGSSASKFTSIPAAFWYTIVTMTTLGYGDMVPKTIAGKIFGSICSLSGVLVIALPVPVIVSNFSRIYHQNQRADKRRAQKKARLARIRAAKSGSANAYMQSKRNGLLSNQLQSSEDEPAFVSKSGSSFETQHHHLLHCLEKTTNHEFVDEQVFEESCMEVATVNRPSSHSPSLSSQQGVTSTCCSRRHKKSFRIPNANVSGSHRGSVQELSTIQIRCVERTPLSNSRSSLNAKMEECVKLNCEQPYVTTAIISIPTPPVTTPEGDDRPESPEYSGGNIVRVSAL
Experimental: as §1

KV11.1 (hERG) = target: T12, KV11.1 (hERG) (Homo sapiens, UniProt Q12809); assay: Potassium channels patch-clamp (QPatch), KV11.1 (hERG); assay type: cell-based; settings: CHO Human KV11.1; read-out: KV11.1 (hERG)
T12 construct: host or cells: CHO
Experimental: as §1

[2] = block of KCa3.1, patch clamp (Table 2), read-out: IC50
[3] = IC50 (nM), block of KCa3.1, patch clamp (Table 2)

T3 sequence (Q9UGI6 whole entry): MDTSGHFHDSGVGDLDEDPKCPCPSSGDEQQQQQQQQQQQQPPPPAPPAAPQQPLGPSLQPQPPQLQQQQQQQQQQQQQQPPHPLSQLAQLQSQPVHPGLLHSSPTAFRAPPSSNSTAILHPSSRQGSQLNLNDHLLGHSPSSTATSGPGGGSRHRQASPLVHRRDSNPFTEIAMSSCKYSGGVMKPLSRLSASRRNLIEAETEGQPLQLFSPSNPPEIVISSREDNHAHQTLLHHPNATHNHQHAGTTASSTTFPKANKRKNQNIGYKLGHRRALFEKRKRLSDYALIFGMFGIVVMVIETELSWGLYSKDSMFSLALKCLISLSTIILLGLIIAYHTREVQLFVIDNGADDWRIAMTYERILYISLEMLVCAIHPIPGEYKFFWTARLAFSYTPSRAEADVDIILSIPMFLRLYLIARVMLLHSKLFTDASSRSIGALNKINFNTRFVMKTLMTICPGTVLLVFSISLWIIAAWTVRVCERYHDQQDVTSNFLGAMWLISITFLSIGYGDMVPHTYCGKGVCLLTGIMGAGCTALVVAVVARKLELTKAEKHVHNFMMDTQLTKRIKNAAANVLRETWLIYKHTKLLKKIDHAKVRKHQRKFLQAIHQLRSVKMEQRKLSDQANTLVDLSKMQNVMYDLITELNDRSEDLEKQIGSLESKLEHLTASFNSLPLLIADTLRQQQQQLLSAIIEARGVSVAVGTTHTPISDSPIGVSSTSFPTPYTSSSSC
CaV1.2 channel over KCa3.1, sequence (Q13936 whole entry): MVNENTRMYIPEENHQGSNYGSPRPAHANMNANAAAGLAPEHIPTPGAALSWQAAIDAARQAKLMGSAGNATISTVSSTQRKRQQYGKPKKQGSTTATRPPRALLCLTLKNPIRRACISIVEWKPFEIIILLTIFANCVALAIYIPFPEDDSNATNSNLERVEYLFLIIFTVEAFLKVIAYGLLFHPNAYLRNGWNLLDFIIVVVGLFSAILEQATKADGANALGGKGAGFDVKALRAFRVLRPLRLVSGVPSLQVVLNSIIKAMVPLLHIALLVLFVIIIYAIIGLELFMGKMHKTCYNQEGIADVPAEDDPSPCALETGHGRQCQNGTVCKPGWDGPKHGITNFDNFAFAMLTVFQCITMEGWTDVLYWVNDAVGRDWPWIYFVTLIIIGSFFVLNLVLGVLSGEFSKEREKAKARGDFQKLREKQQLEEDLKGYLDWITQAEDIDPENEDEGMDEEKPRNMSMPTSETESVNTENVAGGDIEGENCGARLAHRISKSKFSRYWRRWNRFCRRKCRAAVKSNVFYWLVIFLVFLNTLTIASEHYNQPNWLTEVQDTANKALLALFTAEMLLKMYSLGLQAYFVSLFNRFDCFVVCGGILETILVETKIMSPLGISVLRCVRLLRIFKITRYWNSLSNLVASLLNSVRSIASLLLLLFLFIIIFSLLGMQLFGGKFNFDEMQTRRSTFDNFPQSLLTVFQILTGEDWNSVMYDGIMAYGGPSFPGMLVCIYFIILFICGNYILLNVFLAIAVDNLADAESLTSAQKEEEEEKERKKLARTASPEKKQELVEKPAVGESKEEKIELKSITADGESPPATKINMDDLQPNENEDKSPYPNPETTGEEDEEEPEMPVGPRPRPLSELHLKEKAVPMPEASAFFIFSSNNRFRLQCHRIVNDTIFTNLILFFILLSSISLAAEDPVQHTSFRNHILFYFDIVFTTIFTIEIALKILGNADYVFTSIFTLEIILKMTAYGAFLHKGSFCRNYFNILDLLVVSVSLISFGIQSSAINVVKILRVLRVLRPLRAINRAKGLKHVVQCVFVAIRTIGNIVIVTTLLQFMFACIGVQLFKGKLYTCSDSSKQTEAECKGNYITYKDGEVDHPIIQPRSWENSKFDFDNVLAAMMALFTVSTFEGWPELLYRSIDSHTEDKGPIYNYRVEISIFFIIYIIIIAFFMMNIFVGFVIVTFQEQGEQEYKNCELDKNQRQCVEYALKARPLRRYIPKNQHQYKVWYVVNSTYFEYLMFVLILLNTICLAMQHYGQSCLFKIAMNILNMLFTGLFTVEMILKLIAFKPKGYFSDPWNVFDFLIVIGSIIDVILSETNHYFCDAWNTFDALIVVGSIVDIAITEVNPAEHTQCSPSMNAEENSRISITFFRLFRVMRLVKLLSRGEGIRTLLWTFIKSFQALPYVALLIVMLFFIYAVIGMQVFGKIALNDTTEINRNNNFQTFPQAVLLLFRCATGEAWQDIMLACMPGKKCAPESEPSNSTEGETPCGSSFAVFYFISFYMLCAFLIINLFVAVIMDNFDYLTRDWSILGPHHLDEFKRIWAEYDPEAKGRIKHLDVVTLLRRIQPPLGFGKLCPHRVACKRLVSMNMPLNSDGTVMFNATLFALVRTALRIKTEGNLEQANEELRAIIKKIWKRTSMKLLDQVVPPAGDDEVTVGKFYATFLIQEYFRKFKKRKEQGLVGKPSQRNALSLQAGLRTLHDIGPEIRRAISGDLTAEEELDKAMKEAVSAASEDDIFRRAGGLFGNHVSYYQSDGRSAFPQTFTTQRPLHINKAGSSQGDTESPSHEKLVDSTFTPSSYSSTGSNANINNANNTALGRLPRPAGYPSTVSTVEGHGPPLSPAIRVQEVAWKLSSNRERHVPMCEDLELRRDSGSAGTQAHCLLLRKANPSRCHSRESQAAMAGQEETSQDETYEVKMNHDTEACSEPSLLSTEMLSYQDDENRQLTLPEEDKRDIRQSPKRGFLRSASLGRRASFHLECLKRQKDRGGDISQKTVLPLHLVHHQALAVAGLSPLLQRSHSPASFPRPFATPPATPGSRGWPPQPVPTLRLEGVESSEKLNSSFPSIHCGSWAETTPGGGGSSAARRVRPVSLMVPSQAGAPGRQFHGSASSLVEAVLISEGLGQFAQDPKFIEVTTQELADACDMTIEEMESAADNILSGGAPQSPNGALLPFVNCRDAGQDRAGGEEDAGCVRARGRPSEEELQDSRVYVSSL
CaV1.2 channel, sequence (Q13936 whole entry): as above
T12 sequence (Q12809 whole entry): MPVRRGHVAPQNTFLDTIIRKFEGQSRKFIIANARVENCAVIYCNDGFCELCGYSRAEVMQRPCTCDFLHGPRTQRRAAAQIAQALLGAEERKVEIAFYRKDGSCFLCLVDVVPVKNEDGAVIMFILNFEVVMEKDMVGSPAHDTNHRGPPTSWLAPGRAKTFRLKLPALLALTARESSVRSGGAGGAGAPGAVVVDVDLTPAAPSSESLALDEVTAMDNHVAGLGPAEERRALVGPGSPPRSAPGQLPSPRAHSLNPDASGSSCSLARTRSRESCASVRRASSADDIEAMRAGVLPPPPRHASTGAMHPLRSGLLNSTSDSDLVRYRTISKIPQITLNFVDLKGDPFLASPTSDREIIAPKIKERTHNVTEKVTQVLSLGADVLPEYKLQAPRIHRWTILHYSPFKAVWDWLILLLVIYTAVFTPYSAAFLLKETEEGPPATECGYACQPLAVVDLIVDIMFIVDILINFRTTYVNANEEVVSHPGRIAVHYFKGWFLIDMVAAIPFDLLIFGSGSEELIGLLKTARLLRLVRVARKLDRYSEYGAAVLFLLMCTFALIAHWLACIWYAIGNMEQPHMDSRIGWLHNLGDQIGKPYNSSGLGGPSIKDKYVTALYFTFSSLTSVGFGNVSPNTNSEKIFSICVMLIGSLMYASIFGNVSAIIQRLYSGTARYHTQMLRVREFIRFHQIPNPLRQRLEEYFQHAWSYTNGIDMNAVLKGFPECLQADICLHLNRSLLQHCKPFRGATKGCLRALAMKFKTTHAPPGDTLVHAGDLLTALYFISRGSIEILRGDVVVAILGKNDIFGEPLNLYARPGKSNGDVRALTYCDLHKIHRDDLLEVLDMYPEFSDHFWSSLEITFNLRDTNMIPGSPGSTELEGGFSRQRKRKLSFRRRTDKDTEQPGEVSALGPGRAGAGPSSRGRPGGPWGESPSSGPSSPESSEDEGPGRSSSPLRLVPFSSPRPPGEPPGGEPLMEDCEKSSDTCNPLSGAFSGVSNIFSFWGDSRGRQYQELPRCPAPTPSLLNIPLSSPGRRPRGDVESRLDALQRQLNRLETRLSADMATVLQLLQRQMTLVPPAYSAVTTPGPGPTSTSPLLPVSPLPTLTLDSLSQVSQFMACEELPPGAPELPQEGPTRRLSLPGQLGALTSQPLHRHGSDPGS
T6 sequence (P16390 whole entry): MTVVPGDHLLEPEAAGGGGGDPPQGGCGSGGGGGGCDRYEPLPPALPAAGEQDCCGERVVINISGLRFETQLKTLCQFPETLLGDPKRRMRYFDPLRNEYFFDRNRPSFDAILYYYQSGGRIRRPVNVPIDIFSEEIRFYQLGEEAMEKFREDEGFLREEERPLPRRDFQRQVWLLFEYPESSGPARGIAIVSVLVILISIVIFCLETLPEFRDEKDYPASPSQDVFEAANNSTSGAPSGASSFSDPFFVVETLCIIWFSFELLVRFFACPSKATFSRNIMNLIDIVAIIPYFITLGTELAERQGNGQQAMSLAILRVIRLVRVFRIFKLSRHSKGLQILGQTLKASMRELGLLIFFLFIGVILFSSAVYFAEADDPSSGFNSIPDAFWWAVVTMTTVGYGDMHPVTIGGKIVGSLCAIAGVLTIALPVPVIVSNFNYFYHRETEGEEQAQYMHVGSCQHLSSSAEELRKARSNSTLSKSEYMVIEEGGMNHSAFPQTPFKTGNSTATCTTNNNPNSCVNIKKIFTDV

| Structure (SMILES) | IC50 (KCa3.1 channel; [2]) [nM] | IC50 (KCa3.1 channel; [3]) [nM] | IC50 (KCa3.1 channel; KCa3.1 IC50 (nM), Table 3) [nM] | selectivity ratio [1] | IC50 (CaV1.2 channel) [µM] | IC50 (KCa3.1 channel; KCa3.1, Table 5) [nM] | IC50 (KCa2.3) [µM] | IC50 (KV1.3) [µM] | IC50 (KV1.5) [µM] | IC50 (KV11.1 (hERG)) [µM] | also measured |
| --- | --- | --- | --- | --- | --- | --- | --- | --- | --- | --- | --- |
| COC(=O)C1=C(C)NC(C)=C(C(=O)OCCN2CCN(C(c3ccccc3)c3ccccc3)CC2)C1c1cccc([N+](=O)[O-])c1 (stereo not shown) [Compound 03] | > 10000 | – | – | – | – | – | – | – | – | – | – |
| COCCOC(=O)C1=C(C)NC(C)=C(C(=O)OC(C)C)C1c1cccc([N+](=O)[O-])c1 (stereo not shown) [Compound 04] | > 10000 | – | – | – | – | – | – | – | – | – | – |
| COCCOC(=O)C1=C(C)NC(C)=C(C(=O)OCCOC)C1c1cccc([N+](=O)[O-])c1 [Compound 06] | – | 9880 | – | – | – | – | – | – | – | – | – |
| COC(=O)C1=C(C)NC(C)=C(C(=O)OC)C1c1ccccc1[N+](=O)[O-] [Compound 07] | 4000 | – | – | – | – | – | – | – | – | – | IC50 (KCa3.1 channel; Table 3, read-out: KCa3.1 IC50): 4000 nM |
| CCOC(=O)C1=C(C)NC(C)=C(C(=O)OC)C1c1cccc([N+](=O)[O-])c1 (stereo not shown) [Compound 08] | 2300 | – | – | – | – | – | – | – | – | – | IC50 (KCa3.1 channel; Table 3, read-out: KCa3.1 IC50): 2300 nM |
| COC(=O)C1=C(C)NC(C)=C(C(C)=O)C1c1ccc(F)c(C(F)(F)F)c1 (stereo not shown) [Compound 57] | – | 16.8 ± 0.9 | 16.8 | 89 | 1.5 | – | – | – | – | – | – |
| COC(=O)C1=C(C)NC(C)=C(C(C)=O)C1c1cccc([N+](=O)[O-])c1 (stereo not shown) [Compound 79] | – | 142 ± 7.6 | 142 | 14 | 2 | – | – | – | – | – | – |
| COC(=O)C1=C(C)NC(C)=C(C(=O)OC)C1c1ccc(Cl)c(C(F)(F)F)c1 [Compound 102] | – | 7 ± 0.2 | 7 | 342 | 2.4 | – | – | – | – | – | – |
| COC(=O)C1=CNC(C)=C(C(=O)OC)C1c1ccc(F)c(C(F)(F)F)c1 (stereo not shown) [Compound 104, Dimethyl 4-(4-fluoro-3-(trifluoromethyl)phenyl)-2-methyl-1,4-dihydropyridine-3,5-dicarboxylate] | – | – | 7.6 | 644 | 4.9 | 7.6 ± 1.7 | 8 | > 10 | > 10 | > 10 | IC50 (KCa1.1): > 10 µM; IC50 (KCa2.2): > 10 µM; IC50 (KV1.1): > 10 µM; IC50 (KV1.2): > 10 µM; IC50 (KV1.4): > 10 µM; IC50 (KV1.7): > 10 µM; IC50 (KV3.1): > 10 µM; IC50 (KV4.2): > 10 µM |
| COC(=O)C1=CNC=C(C(=O)OC)C1c1cccc(C(F)(F)F)c1 [Compound 108, Dimethyl 4-(3-(trifluoromethyl)phenyl)-1,4-dihydropyridine-3,5-dicarboxylate] | – | 18.5 ± 1.1 | 18.5 | 1190 | 22 | 18.5 ± 1.1 | 7 | > 10 | > 10 | > 10 | IC50 (KCa1.1): > 10 µM; IC50 (KCa2.2): > 10 µM; IC50 (KV1.1): > 10 µM; IC50 (KV1.2): > 10 µM; IC50 (KV1.4): > 10 µM; IC50 (KV1.7): > 10 µM; IC50 (KV3.1): > 10 µM; IC50 (KV4.2): > 10 µM |
| COC(=O)C1=CNC=C(C(=O)OC)C1c1cc(F)cc(C(F)(F)F)c1 [Compound 109] | – | 4.5 ± 0.2 | 4.5 | 2360 | 10.6 | 4.5 ± 0.2 | > 10 | > 10 | > 10 | > 10 | – |
| COC(=O)C1=CNC=C(C(=O)OC)C1c1cc(F)c(F)c(C(F)(F)F)c1 [Compound 110, Dimethyl 4-(3,4-difluoro-5-(trifluoromethyl)phenyl)-1,4-dihydropyridine-3,5-dicarboxylate] | – | 6.9 ± 1.3 | 6.9 | 1320 | 9.1 | 6.9 ± 1.3 | > 10 | > 10 | > 10 | > 10 | – |
| COC(=O)C1=CNC=C(C(=O)OC)C1c1ccc(Cl)c(C(F)(F)F)c1 [Compound 113, Dimethyl 4-(4-chloro-3-(trifluoromethyl)phenyl)-1,4-dihydropyridine-3,5-dicarboxylate] | – | 5.7 ± 0.3 | 5.7 | 649 | 3.7 | 5.7 ± 0.3 | > 10 | > 10 | > 10 | > 10 | – |
